Measured values reported in the NIST ThermoML archive (doi:10.1021/acs.jced.8b00028).
± gives the expanded uncertainty stated by the source.

Details: 101 kPa, Liquid
[1] = 273.15 K, Buoyancy - hydrostatic balance
[2] = 283.15 K, Buoyancy - hydrostatic balance
[3] = 293.15 K, Buoyancy - hydrostatic balance
[4] = 303.15 K, Buoyancy - hydrostatic balance
[5] = 313.15 K, Buoyancy - hydrostatic balance
[6] = 323.15 K, Buoyancy - hydrostatic balance
[7] = 333.15 K, Buoyancy - hydrostatic balance
[8] = 343.15 K, Buoyancy - hydrostatic balance
[9] = 353.15 K, Buoyancy - hydrostatic balance
[10] = 363.15 K, Buoyancy - hydrostatic balance
[11] = 373.15 K, Buoyancy - hydrostatic balance
[12] = 383.15 K, Buoyancy - hydrostatic balance
[13] = 393.15 K, Buoyancy - hydrostatic balance
[14] = 403.15 K, Buoyancy - hydrostatic balance
[15] = 413.15 K, Buoyancy - hydrostatic balance
[16] = 423.15 K, Buoyancy - hydrostatic balance
[17] = 433.15 K, Buoyancy - hydrostatic balance
[18] = 443.15 K, Buoyancy - hydrostatic balance
[19] = 453.15 K, Buoyancy - hydrostatic balance
[20] = 463.15 K, Buoyancy - hydrostatic balance

Row | Compound | mass density [1] | mass density (273.15 K, Pycnometric method) | mass density [2] | mass density (283.15 K, Pycnometric method) | mass density [3] | mass density (293.15 K, Pycnometric method) | mass density [4] | mass density (303.15 K, Pycnometric method) | mass density [5] | mass density (313.15 K, Pycnometric method) | mass density [6] | mass density (323.15 K, Pycnometric method) | mass density [7] | mass density (333.15 K, Pycnometric method) | mass density [8] | mass density (343.15 K, Pycnometric method) | mass density [9] | mass density (353.15 K, Pycnometric method) | mass density [10] | mass density (363.15 K, Pycnometric method) | also measured
1 | OCCO [1,2-ethanediol] | 1127.2 ± 0.23 kg/m3 | 1127.05 ± 0.38 kg/m3 | 1120.58 ± 0.23 kg/m3 | 1120.5 ± 0.36 kg/m3 | 1113.84 ± 0.22 kg/m3 | 1113.84 ± 0.35 kg/m3 | 1106.98 ± 0.22 kg/m3 | 1107.07 ± 0.36 kg/m3 | 1099.99 ± 0.22 kg/m3 | 1100.19 ± 0.37 kg/m3 | 1092.88 ± 0.22 kg/m3 | 1093.2 ± 0.39 kg/m3 | 1085.65 ± 0.22 kg/m3 | 1086.11 ± 0.4 kg/m3 | 1078.29 ± 0.22 kg/m3 | 1078.91 ± 0.42 kg/m3 | 1070.8 ± 0.22 kg/m3 | 1071.6 ± 0.44 kg/m3 | 1063.2 ± 0.21 kg/m3 | 1064.18 ± 0.45 kg/m3 | mass density [11]: 1055.47 ± 0.21 kg/m3; mass density [12]: 1047.62 ± 0.21 kg/m3; mass density [13]: 1039.64 ± 0.21 kg/m3; mass density [14]: 1031.53 ± 0.21 kg/m3; mass density [15]: 1023.31 ± 0.21 kg/m3; mass density [16]: 1014.96 ± 0.2 kg/m3; mass density [17]: 1006.48 ± 0.2 kg/m3; mass density [18]: 997.88 ± 0.2 kg/m3; mass density [19]: 989.16 ± 0.2 kg/m3; mass density [20]: 980.31 ± 0.2 kg/m3; mass density (473.15 K, Buoyancy - hydrostatic balance): 971.34 ± 0.2 kg/m3
2 | CC(O)CO (configuration not stated) [1,2-propanediol] | 1051.77 ± 0.21 kg/m3 | 1052.17 ± 0.35 kg/m3 | 1044.65 ± 0.21 kg/m3 | 1044.74 ± 0.33 kg/m3 | 1037.13 ± 0.21 kg/m3 | 1037.22 ± 0.31 kg/m3 | 1029.87 ± 0.21 kg/m3 | 1029.64 ± 0.32 kg/m3 | 1022.37 ± 0.21 kg/m3 | 1021.98 ± 0.34 kg/m3 | 1014.64 ± 0.2 kg/m3 | 1014.25 ± 0.35 kg/m3 | 1006.75 ± 0.2 kg/m3 | 1006.45 ± 0.37 kg/m3 | 998.71 ± 0.2 kg/m3 | 998.57 ± 0.38 kg/m3 | 990.77 ± 0.2 kg/m3 | 990.62 ± 0.4 kg/m3 | 982.38 ± 0.2 kg/m3 | 982.6 ± 0.41 kg/m3 | mass density [11]: 973.81 ± 0.2 kg/m3; mass density [12]: 965.04 ± 0.19 kg/m3; mass density [13]: 956.09 ± 0.19 kg/m3; mass density [14]: 946.95 ± 0.19 kg/m3; mass density [15]: 937.62 ± 0.19 kg/m3; mass density [16]: 928.1 ± 0.19 kg/m3; mass density [17]: 918.39 ± 0.18 kg/m3; mass density [18]: 908.5 ± 0.18 kg/m3; mass density [19]: 898.41 ± 0.18 kg/m3; mass density [20]: 888.14 ± 0.18 kg/m3
3 | CCCCCCC [heptane] |  |  |  |  | 683.65 ± 0.14 kg/m3 | 683.67 ± 1 kg/m3 |  |  |  |  |  |  |  |  |  |  |  |  |  |  | mass density (301.62 K, Buoyancy - hydrostatic balance): 675.96 ± 0.14 kg/m3; mass density (301.62 K, Pycnometric method): 675.75 ± 1 kg/m3; mass density (310.71 K, Buoyancy - hydrostatic balance): 668.05 ± 0.13 kg/m3; mass density (310.71 K, Pycnometric method): 667.37 ± 1 kg/m3; mass density (319.85 K, Buoyancy - hydrostatic balance): 660.16 ± 0.13 kg/m3; mass density (319.85 K, Pycnometric method): 659.85 ± 1 kg/m3; mass density (329.04 K, Buoyancy - hydrostatic balance): 652.58 ± 0.13 kg/m3; mass density (329.04 K, Pycnometric method): 651.92 ± 1 kg/m3; mass density (338.26 K, Buoyancy - hydrostatic balance): 644.01 ± 0.13 kg/m3; mass density (338.26 K, Pycnometric method): 644.32 ± 1 kg/m3; mass density (347.53 K, Buoyancy - hydrostatic balance): 635.57 ± 0.13 kg/m3; mass density (347.53 K, Pycnometric method): 635.91 ± 1 kg/m3; mass density (356.84 K, Buoyancy - hydrostatic balance): 627.05 ± 0.13 kg/m3; mass density (356.84 K, Pycnometric method): 627.85 ± 1 kg/m3
